Values after ≈ are worked out from the molar mass of the structure shown. Where two headings read alike, the source gives them in different places. A value given as a limit tells only on which side of the number the result lay.

Test in all cases: MIC (YAG medium)
What all share (format): cell-based

In one assay the test system is Aspergillus flavus. To be noted: for MIC: Aspergillus flavus, read-out: MIC A. flavus (grade). As for the experimental part:
(§1) Between 1 and 5 mgs of compound were accurately weighed out into a sterile Eppendorf tube. The compound was dissolved in DMSO to give a solution containing 5 mg/mL. Tubes were stored at −20° C. until required.
(§2) On the day of testing thawed solutions were vortex mixed to ensure homogeneity. 30 μL of solution was removed and added to 570 μL of sterile water in a separate sterile Eppendorf The thoroughly mixed solution was used to prepare a series of doubling dilutions in water, in a deep well plate. […] replicate plates were prepared using a Minitrak by aspirating 20 μL from each well into eleven clear polystyrene 96 well plates.
(§3) Spores of Aspergillus spp. (Aspergillus fumigatus [two strains], Aspergillus terreus [two strains], Aspergillus niger and Aspergillus flavus) were harvested from cultures grown on Sabarauds agar for 5 days, and resuspended in PBS/Tween 80 to approx 1×10^7 cfu/mL. Other filamentous fungi (Absidia corymbifera, Fusarium solani, Rhizomucor, Scedosporium spp., Trichophyton spp.), were grown on Sabarauds agar for 2-10 days and spores/hyphae resuspended in PBS/Tween to give approx 1×10^7 cfu/mL. Candida species (Candida albicans, Candida glabrata, Candida krusei, Candida parapsilosis and Candida tropicalis) were grown on Sabarauds agar, cells were harvested from the agar using a sterile loop and resuspended in PBS/Tween 80 to approx 1×10^6 cfu/mL. Each organism suspension was diluted in RPMI medium, containing 2% glucose and 0.135 M MOPS buffer (pH 7.0) to 0.5−2×10^4 cfu/mL for Aspergillus spp. and other filamentous fungi and 0.5-2×10^3 cfu/mL for yeast. 80 μL of an organism suspension was added to each well of the plate containing drug dilutions.
(§4) This produced MIC plates with a drug range 50-0.05 mg/L and organism inocula of 1-2×10^4 cfu/mL for Aspergillus spp. and other filamentous fungi and 1-2×10^3 cfu/mL for yeasts. All plates were incubated for 24-48 hrs at 35° C. Growth was assessed by monitoring the optical density at 485 nm for each well. The MIC of a compound is the lowest drug concentration that inhibits growth of an organism by >80% compared with a drug free control. MICs are recorded as mg/L. Other growth media can be used for susceptibility testing, and the activity of the described compounds can also be assessed in a medium comprising 1% glucose, 1% ammonium chloride and 0.5% yeast extract (YAG medium). To perform MIC tests in this medium, dilutions of compounds are prepared in microtitre plates as described above. Fungal strains to be tested are grown and harvested in an identical manner to that described above, each organism suspension is then diluted in YAG medium to 0.5-2×10^4 cfu/mL for Aspergillus spp. and other filamentous fungi and 0.5-2×10^3 cfu/mL for yeast. 80 μL of an organism suspension was added to each well of the plate containing drug dilutions. This produced MIC plates with a drug range 50-0.05 mg/L and organism inocula of 1-2×10^4 cfu/mL for Aspergillus spp. and other filamentous fungi and 1-2×10^3 cfu/mL for yeasts. All plates were incubated for 24 hrs at 35° C. Growth was assessed by monitoring the optical density at 485 nm for each well. The MIC of a compound is the lowest drug concentration that inhibits growth of an organism by >70% compared with a drug free control. MICs are recorded as mg/L. In cases where the MIC of an organism is […] mg/L the MIC is repeated using a concentration range of 0.5-0.0005 mg/L. MIC tests in YAG medium have more clear-cut endpoints and have slightly lower MICs than those performed in RPMI medium.
(§5) The following organisms were tested: Absidia corymbifera, Aspergillus flavus, Aspergillus fumigatus AF293 and AF210, Aspergillus niger, Aspergillus terreus AT4 and AT49, Candida albicans, Candida glabrata, Candida krusei, Candida parapsilosis, Candida tropicalis, Fusarium solani, Rhizomucor sp., Scedosporium apiospermum, Scedosporium prolificans, Trichophyton mentagrophytes, and Trichophyton rubrum.

The test system of assay [1] is Aspergillus fumigatus AF210. To be noted: for MIC: Aspergillus fumigatus. As for the experimental part: as §1, §2, §3, §4, §5
Assay [2] deals with Aspergillus fumigatus AF293. To be noted: for MIC: Aspergillus fumigatus. As for the experimental part: as §1, §2, §3, §4, §5
The test system of another assay is Aspergillus niger. To be noted: for MIC: Aspergillus niger, read-out: MIC A. niger (grade). As for the experimental part: as §1, §2, §3, §4, §5
The test system of a further assay is Aspergillus terreus AT49. To be noted: for MIC: Aspergillus terreus. As for the experimental part: as §1, §2, §3, §4, §5
Another assay deals with Aspergillus terreus AT4. To be noted: for MIC: Aspergillus terreus. As for the experimental part: as §1, §2, §3, §4, §5
Where [3] appears, read: YAG medium, MIC banded into grades.
Setting [4] is: YAG medium, MIC banded into grades, AF210, read-out: MIC A. fumigatus 210 (grade).
[5] abbreviates: YAG medium, MIC banded into grades, AF293, read-out: MIC A. fumigatus (grade).
Where [6] appears, read: YAG medium, MIC banded into grades, AT49, read-out: MIC A. terreus 49 (grade).
The mark [7] stands for this setting: YAG medium, MIC banded into grades, AT4, read-out: MIC A. terreus (grade).

As to “2-Oxo-2-(2-phenyl-indolizin-3-yl)-N-{4-[4-(2-pyridin-yl-ethyl)-perazin-1-yl]-phenyl}-acetamide [Example 36]”, the “MIC A. flavus (grade)” value in the assay on Aspergillus flavus (setting [3]) is reported as 3 (A grade of 3 represents an MIC of less than 1 mg/L). Also, the “MIC A. fumigatus 210 (grade)” value in assay [1] (YAG medium, MIC banded into grades, AF210) was 3 (A grade of 3 represents an MIC of less than 1 mg/L). The “MIC A. fumigatus (grade)” value in assay [2] (YAG medium, MIC banded into grades, AF293) is given as 3 (A grade of 3 represents an MIC of less than 1 mg/L). Besides, in the assay with Aspergillus niger (setting [3]), the “MIC A. niger (grade)” value was 3 (A grade of 3 represents an MIC of less than 1 mg/L). In addition, in the assay with Aspergillus terreus AT49 (YAG medium, MIC banded into grades, AT49), the “MIC A. terreus 49 (grade)” value is given as 3 (A grade of 3 represents an MIC of less than 1 mg/L). For the same compound, in the assay with Aspergillus terreus AT4 (YAG medium, MIC banded into grades, AT4), the “MIC A. terreus (grade)” value was 3 (A grade of 3 represents an MIC of less than 1 mg/L).
For `O=C(Nc1ccc(N2CCS(=O)(=O)CC2)cc1)C(=O)c1c(-c2ccccc2)cc2ccccn12` [Example 1, N-[4-(1,1-Dioxo-1λ^6-thiomorpholin-4-yl)-phenyl]-2-oxo-2-(2-phenyl-indolizin-3-yl)-acetamide], the MIC was 1 to 10 µg/mL (≈ 2.11 to 21.1 µM) in the assay with Aspergillus flavus (setting [3]); over 10 µg/mL in assay [1] (setting [4]); over 10 µg/mL in assay [2] (setting [5]); over 10 µg/mL in the assay on Aspergillus niger (setting [3]); over 10 µg/mL with Aspergillus terreus AT49 (setting [6]); 1 to 10 µg/mL (≈ 2.11 to 21.1 µM) in the assay on Aspergillus terreus AT4 (setting [7]).
As for `O=C(Nc1ccccc1F)C(=O)c1c(-c2ccccc2)cc2ccc3ccccc3n12` [Example 4, N-(2-fluoro-phenyl)-2-oxo-2-(2-phenyl-pyrrolo[1,2-a]quinolin-1-yl)-acetamide], the MIC (in the assay with Aspergillus flavus (setting [3]); in assay [1] (setting [4]); in assay [2] (setting [5]); with Aspergillus niger (setting [3]); with Aspergillus terreus AT49 (setting [6]); with Aspergillus terreus AT4 (setting [7])) was over 10 µg/mL throughout.
For `CS(=O)(=O)NC(=O)c1ccc(NC(=O)C(=O)c2c(-c3ccccc3)cc3ccccn23)cc1` [Example 5, N-(4-methanesulfonylaminocarbonyl-phenyl)-2-oxo-2-(2-phenyl-indolizin-3-yl)-acetamide], the MIC (with Aspergillus flavus (setting [3]); in assay [1] (setting [4]); in assay [2] (setting [5]); with Aspergillus niger (setting [3]); with Aspergillus terreus AT49 (setting [6]); in the assay with Aspergillus terreus AT4 (setting [7])) was over 10 µg/mL in each case.
Take `COc1ccc(NC(=O)C(=O)c2c(C)c(-c3ccccc3)c3ccccn23)cc1` [Example 6, N-(4-methoxy-phenyl)-2-(2-methyl-1-phenyl-indolizin-3-yl)-2-oxo-acetamide]: the MIC (in the assay with Aspergillus flavus (setting [3]); in assay [1] (setting [4]); in assay [2] (setting [5]); with Aspergillus niger (setting [3]); in the assay on Aspergillus terreus AT49 (setting [6]); with Aspergillus terreus AT4 (setting [7])) was over 10 µg/mL in each case.
For `Cc1c(-c2ccccc2)c2ccccn2c1C(=O)C(=O)Nc1ccc(N2CCOCC2)cc1` [Example 7, 2-(2-methyl-1-phenyl-indolizin-3-yl)-N-(4-morpholin-4-yl-phenyl)-2-oxo-acetamide], the MIC (in the assay on Aspergillus flavus (setting [3]); in assay [1] (setting [4]); in assay [2] (setting [5]); with Aspergillus niger (setting [3]); with Aspergillus terreus AT49 (setting [6]); with Aspergillus terreus AT4 (setting [7])) was over 10 µg/mL throughout.
In the case of `CN1/C(=N/c2ccc(NC(=O)C(=O)c3c(-c4ccccc4)cc4ccccn34)cc2)OCC1(C)C` [Example 8, 2-oxo-2-(2-phenyl-indolizin-3-yl)-N-{4-[3,4,4-trimethyl-oxazolidin-(2Z)-ylideneamino]-phenyl}-acetamide], the MIC with Aspergillus flavus (setting [3]) is over 10 µg/mL; in assay [1] (setting [4]), over 10 µg/mL; in assay [2] (setting [5]), over 10 µg/mL; with Aspergillus niger (setting [3]) it was over 10 µg/mL; in the assay on Aspergillus terreus AT49 (setting [6]), 1 to 10 µg/mL (≈ 2.14 to 21.4 µM); in the assay with Aspergillus terreus AT4 (setting [7]) it was over 10 µg/mL.
In the case of `O=C1Cc2cc(NC(=O)C(=O)c3c(-c4ccccc4)cc4ccccn34)ccc2N1` [Example 9, 2-Oxo-N-(2-oxo-2,3-dihydro-1H-indol-5-yl)-2-(2-phenyl-indolizin-3-yl)-acetamide], the MIC in the assay with Aspergillus flavus was over 10 µg/mL; in assay [1] (AF210, read-out: MIC A. fumigatus 210 (grade)) it was over 10 µg/mL; in assay [2] (AF293, read-out: MIC A. fumigatus (grade)), over 10 µg/mL; in the assay with Aspergillus niger it was over 10 µg/mL; in the assay with Aspergillus terreus AT49 (AT49, read-out: MIC A. terreus 49 (grade)), over 10 µg/mL; in the assay with Aspergillus terreus AT4 (AT4, read-out: MIC A. terreus (grade)) it was over 10 µg/mL.
In the case of `CCC(CC)N1CCN(c2ccc(NC(=O)C(=O)c3c(-c4ccccc4Cl)cc4ccccn34)cn2)CC1` [Example 10, 2-[2-(2-chloro-phenyl)-indolizin-3-yl]-N-{6-[4-(1-ethyl-propyl)-piperazin-1-yl]-pyridin-3-yl}-2-oxo-acetamide], the MIC (with Aspergillus flavus (setting [3]); in assay [1] (setting [4]); in assay [2] (setting [5]); in the assay with Aspergillus niger (setting [3]); with Aspergillus terreus AT49 (setting [6]); in the assay on Aspergillus terreus AT4 (setting [7])) was under 1 µg/mL throughout.
`O=C(Nc1ccc(C(=O)OC2CCOCC2)c(O)c1)C(=O)c1c(-c2ccccc2)cc2ccccn12` [Example 11, 2-hydroxy-4-[2-oxo-2-(2-phenyl-indolizin-3-yl)-acetylamino]-benzoic acid tetrahydro-pyran-4-yl ester]: the MIC (in the assay with Aspergillus flavus (setting [3]); in assay [1] (setting [4]); in assay [2] (setting [5]); in the assay with Aspergillus niger (setting [3]); in the assay on Aspergillus terreus AT49 (setting [6]); in the assay on Aspergillus terreus AT4 (setting [7])) was under 1 µg/mL throughout.
As to `Cc1cc(NC(=O)C(=O)c2c(-c3ccccc3)cc3ccccn23)ccc1OCCCn1ccnc1C(C)C` [Example 12, N-{4-[3-(2-Isopropyl-imidazol-1-yl)-propoxy]-3-methyl-phenyl}-2-oxo-2-(2-phenyl-indolizin-3-yl)-acetamide], the MIC is under 1 µg/mL with Aspergillus flavus (setting [3]); 1 to 10 µg/mL (≈ 1.92 to 19.2 µM) in assay [1] (setting [4]); 1 to 10 µg/mL (≈ 1.92 to 19.2 µM) in assay [2] (setting [5]); over 10 µg/mL with Aspergillus niger (setting [3]); 1 to 10 µg/mL (≈ 1.92 to 19.2 µM) with Aspergillus terreus AT49 (setting [6]); 1 to 10 µg/mL (≈ 1.92 to 19.2 µM) in the assay with Aspergillus terreus AT4 (setting [7]).
Consider `CC(C)c1nc(C(C)(C)c2cccc(NC(=O)C(=O)c3c(-c4ccccc4)cc4ccccn34)c2)cn1C` [Example 14, N-{3-[1-(2-Isopropyl-1-methyl-1H-imidazol-4-yl)-1-methyl-ethyl]-phenyl}-2-oxo-2-(2-phenyl-indolizin-3-yl)-acetamide], for which the MIC was 1 to 10 µg/mL (≈ 1.98 to 19.8 µM) in the assay with Aspergillus flavus (setting [3]); over 10 µg/mL in assay [1] (setting [4]); over 10 µg/mL in assay [2] (setting [5]); over 10 µg/mL in the assay on Aspergillus niger (setting [3]); 1 to 10 µg/mL (≈ 1.98 to 19.8 µM) in the assay with Aspergillus terreus AT49 (setting [6]); 1 to 10 µg/mL (≈ 1.98 to 19.8 µM) with Aspergillus terreus AT4 (setting [7]).
In the case of `CC(C)c1ncc(C(C)(C)c2cccc(NC(=O)C(=O)c3c(-c4ccccc4)cc4ccccn34)c2)n1C` [Example 15, N-{3-[1-(2-Isopropyl-3-methyl-3H-imidazol-4-yl)-1-methyl-ethyl]-phenyl}-2-oxo-2-(2-phenyl-indolizin-3-yl)-acetamide], the MIC (in the assay with Aspergillus flavus (setting [3]); in assay [1] (setting [4]); in assay [2] (setting [5]); in the assay with Aspergillus niger (setting [3]); in the assay on Aspergillus terreus AT49 (setting [6]); with Aspergillus terreus AT4 (setting [7])) was over 10 µg/mL in each case.

The MIC is the least concentration at which growth counts as inhibited.

The values are drawn from patent US20110183969A1, “ANTIFUNGAL COMBINATION THERAPY” (priority 2008, published 2011).
